Thermal stability z-score data for 24 targets are collected here from the supplement of paper PMC12463676, “Small-molecule dissolution of stress granules by redox modulation benefits ALS models” (Nature Chemical Biology, 2025).

Compound in experiment [1]: NC(=O)CCCCC1CCSS1 [lipoamide]
Kind of experiment: thermal stability z-score vs DMSO; higher = more thermally stabilized by treatment. To be noted: HeLa, lipoamide concentration 100 µM. On the procedure:
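Cellular thermal proteome profiling in HeLa cells. Cells were treated with 100 µM lipoamide for 1 h, with or without 1 mM arsenate for a further 1 h, then heated to ten temperatures (37-66.3 °C), and soluble protein was quantified by TMT mass spectrometry relative to 0.1% DMSO controls. The thermal stability score (sum of log2 fold changes minus the abundance score) was transformed to a z-score; mean of n = 3 experiments.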

Compound in experiment [2]: O=[As]([O-])(O)O.[K+] [potassium arsenate]
The description is as above. The conditions noted are these: HeLa; arsenate concentration 1 mM. The method, then: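 Cellular thermal proteome profiling in HeLa cells treated with 1 mM arsenate for 1 h (DMSO pretreatment), heated to ten temperatures (37-66.3 °C). Soluble protein was quantified by TMT mass spectrometry relative to DMSO controls; the thermal stability score was transformed to a z-score; mean of n = 3 experiments.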

[3] abbreviates: arsenate co-treatment: 1 mM arsenate 1 h.
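Also: each temperature applied for 3 min, abundance score taken as mean log2 fold change at the two lowest temperatures, z-score obtained by mean subtraction and division by SD.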

UniProt Q99547, sequence (Q99547 whole entry): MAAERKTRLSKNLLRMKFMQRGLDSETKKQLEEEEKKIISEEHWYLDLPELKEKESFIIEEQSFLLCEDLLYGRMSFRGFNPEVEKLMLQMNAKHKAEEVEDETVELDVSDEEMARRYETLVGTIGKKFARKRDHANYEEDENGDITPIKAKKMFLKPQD
UniProt Q9Y6X9, sequence (Q9Y6X9 whole entry): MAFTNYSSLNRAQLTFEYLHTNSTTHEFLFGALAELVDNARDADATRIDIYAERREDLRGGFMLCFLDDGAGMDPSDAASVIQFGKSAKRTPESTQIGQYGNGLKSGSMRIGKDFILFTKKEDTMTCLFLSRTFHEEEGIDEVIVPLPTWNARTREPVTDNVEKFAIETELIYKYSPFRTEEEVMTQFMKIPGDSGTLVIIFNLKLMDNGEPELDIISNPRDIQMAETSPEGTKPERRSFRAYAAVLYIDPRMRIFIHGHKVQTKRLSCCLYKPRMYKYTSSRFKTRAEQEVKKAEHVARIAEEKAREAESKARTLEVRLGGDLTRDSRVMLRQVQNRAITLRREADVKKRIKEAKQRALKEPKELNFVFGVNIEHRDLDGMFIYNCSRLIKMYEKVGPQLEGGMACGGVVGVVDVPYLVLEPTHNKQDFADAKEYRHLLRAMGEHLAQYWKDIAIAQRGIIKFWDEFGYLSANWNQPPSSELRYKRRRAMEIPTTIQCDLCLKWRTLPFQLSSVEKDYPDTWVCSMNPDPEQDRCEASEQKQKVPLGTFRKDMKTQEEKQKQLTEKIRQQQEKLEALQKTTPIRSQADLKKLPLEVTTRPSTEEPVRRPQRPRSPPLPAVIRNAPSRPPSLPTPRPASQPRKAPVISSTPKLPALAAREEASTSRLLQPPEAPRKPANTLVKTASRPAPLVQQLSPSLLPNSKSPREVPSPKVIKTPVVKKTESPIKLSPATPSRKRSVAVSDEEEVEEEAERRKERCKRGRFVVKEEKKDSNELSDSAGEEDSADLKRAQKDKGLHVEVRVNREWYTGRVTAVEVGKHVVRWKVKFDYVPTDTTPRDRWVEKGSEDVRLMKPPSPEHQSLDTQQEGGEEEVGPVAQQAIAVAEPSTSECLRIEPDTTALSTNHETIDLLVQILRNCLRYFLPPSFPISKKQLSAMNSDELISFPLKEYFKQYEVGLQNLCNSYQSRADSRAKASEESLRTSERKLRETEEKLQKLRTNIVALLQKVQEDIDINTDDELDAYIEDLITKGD
UniProt O60487, sequence (O60487 whole entry): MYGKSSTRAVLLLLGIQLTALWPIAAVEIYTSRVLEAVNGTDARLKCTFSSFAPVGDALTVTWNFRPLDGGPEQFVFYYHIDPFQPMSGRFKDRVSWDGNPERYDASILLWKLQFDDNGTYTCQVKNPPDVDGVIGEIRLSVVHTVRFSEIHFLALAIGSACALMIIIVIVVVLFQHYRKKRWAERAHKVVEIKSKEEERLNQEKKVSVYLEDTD
UniProt Q8NHP6, sequence (Q8NHP6 whole entry): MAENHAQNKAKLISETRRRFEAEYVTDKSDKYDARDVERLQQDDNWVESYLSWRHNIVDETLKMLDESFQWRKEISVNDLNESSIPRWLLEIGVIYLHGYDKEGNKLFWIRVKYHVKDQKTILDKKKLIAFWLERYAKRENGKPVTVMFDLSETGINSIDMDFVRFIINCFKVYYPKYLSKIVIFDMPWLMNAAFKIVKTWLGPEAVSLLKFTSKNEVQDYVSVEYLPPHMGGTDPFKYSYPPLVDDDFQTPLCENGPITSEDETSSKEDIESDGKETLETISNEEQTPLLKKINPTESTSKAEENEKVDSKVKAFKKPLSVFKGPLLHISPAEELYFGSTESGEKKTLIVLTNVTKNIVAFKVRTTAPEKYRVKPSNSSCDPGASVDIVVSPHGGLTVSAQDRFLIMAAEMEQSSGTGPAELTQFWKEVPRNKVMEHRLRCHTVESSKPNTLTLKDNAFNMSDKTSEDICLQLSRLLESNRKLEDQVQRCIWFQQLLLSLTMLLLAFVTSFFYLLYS
UniProt P34949, sequence (P34949 whole entry): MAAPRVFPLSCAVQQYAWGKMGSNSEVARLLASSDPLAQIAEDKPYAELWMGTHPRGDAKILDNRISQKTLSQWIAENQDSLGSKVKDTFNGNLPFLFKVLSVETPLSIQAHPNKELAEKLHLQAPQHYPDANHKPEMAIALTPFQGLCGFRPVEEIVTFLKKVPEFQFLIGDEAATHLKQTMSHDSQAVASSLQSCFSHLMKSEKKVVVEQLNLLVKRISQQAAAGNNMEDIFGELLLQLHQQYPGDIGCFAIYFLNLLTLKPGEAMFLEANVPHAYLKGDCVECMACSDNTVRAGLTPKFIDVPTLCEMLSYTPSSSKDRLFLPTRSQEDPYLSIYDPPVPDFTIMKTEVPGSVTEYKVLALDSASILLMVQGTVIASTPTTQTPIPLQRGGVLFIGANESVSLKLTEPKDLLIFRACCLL
UniProt O95563, sequence (O95563 whole entry): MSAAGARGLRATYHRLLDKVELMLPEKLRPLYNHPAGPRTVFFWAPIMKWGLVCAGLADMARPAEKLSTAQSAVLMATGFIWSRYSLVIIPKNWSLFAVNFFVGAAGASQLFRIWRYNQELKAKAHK
UniProt Q15014, sequence (Q15014 whole entry): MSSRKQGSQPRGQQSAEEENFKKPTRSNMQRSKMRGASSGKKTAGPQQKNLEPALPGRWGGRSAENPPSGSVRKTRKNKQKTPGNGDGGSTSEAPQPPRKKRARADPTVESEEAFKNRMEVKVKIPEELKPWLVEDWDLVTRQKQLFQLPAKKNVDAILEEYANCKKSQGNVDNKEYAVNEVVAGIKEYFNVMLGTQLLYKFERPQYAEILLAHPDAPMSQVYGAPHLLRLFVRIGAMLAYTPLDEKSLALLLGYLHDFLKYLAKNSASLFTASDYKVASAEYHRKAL
UniProt O95297, sequence (O95297 whole entry): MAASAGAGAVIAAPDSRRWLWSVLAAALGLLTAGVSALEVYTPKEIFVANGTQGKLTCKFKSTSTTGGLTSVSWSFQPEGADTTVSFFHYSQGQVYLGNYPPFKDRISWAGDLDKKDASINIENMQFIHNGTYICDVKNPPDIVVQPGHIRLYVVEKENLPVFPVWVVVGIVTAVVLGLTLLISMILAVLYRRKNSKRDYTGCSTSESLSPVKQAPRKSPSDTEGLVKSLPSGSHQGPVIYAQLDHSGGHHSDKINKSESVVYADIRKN
UniProt Q00013, sequence (Q00013 whole entry): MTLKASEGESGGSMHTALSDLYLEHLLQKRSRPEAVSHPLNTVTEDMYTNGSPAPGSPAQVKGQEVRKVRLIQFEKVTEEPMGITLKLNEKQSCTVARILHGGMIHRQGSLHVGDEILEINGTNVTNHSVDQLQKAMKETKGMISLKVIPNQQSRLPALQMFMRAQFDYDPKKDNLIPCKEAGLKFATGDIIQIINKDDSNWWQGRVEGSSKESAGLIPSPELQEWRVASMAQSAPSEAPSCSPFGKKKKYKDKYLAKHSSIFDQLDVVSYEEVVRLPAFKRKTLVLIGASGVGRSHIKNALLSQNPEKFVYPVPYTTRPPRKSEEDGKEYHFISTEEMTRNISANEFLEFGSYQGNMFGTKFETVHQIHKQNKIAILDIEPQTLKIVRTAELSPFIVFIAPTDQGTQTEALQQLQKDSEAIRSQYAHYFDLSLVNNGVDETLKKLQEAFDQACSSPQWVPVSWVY
UniProt Q14149, sequence (Q14149 whole entry): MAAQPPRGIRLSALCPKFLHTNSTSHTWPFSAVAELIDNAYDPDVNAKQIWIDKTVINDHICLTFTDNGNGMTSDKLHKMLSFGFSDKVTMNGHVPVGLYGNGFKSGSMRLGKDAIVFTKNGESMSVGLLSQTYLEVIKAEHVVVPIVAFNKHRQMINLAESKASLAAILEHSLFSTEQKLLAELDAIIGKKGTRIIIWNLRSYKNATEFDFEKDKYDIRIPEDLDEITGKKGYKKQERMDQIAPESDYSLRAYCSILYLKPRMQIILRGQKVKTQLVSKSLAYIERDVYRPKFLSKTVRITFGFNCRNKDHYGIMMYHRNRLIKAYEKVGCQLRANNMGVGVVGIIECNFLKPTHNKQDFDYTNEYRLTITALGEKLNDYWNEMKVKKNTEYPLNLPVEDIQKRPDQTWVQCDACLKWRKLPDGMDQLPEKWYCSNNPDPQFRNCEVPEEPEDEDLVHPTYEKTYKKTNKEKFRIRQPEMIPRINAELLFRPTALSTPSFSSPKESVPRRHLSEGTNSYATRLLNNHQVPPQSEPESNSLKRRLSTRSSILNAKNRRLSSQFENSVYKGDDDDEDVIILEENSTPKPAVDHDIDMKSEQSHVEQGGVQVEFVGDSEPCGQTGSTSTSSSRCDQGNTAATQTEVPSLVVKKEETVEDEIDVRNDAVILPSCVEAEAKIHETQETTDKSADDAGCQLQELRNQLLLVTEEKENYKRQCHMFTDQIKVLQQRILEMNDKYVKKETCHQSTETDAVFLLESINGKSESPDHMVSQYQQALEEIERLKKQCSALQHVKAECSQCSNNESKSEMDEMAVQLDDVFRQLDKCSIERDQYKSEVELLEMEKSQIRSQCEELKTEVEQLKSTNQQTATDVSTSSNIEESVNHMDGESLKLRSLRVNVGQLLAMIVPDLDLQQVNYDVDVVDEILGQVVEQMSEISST
UniProt P56378, sequence (P56378 whole entry): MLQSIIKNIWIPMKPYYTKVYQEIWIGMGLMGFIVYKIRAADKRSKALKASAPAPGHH
UniProt Q9UJG1, sequence (Q9UJG1 whole entry): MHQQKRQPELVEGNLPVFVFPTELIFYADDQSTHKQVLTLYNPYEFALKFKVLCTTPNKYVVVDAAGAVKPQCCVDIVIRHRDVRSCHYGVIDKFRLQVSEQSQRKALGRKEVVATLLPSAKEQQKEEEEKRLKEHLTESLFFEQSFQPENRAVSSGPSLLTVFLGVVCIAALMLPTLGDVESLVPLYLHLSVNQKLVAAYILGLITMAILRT
UniProt O14807, sequence (O14807 whole entry): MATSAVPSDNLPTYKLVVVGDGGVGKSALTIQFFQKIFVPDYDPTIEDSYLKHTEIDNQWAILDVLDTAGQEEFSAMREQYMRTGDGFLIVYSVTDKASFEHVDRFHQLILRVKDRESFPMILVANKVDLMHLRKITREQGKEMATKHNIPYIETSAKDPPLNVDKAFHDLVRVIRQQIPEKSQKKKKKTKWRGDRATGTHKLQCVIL

Take MON2 (UniProt Q7Z3U7): the thermal stability z-score amounted to 0.0206 in experiment [1] (setting [3]), 0.307 in experiment [1] (arsenate co-treatment: none) and 0.63 in experiment [2].
On the same counts, the results for MORC2 (UniProt Q9Y6X9) are -0.165, -0.0529 and -0.726.
For the target MORC3 (UniProt Q14149), the thermal stability z-score in experiment [1] (setting [3]) was -0.165; in experiment [1] (arsenate co-treatment: none) it was -0.119; in experiment [2] it was -0.054.
In the same order, the values of MORF4L1 (UniProt Q9UBU8) are -0.486, 0.0693 and 0.343.
Regarding MORF4L2 (UniProt Q15014), the thermal stability z-score was -0.451 in experiment [1] (setting [3]), -0.148 in experiment [1] (arsenate co-treatment: none) and -0.58 in experiment [2].
On the same counts, the results for MOSPD1 (UniProt Q9UJG1) are -0.167, -0.25 and -0.354.
In the same order, the values of MOSPD2 (UniProt Q8NHP6) are -0.58, -0.383 and -0.254.
Consider MOV10 (UniProt Q9HCE1), for which the thermal stability z-score is -0.0627 in experiment [1] (setting [3]), 0.31 in experiment [1] (arsenate co-treatment: none) and -0.16 in experiment [2].
In the same order, the values of MP68 (UniProt P56378) are 0.962, 0.921 and 1.15.
In the case of MPC2 (UniProt O95563), the thermal stability z-score in experiment [1] (setting [3]) was 0.0545; in experiment [1] (arsenate co-treatment: none), -0.501; in experiment [2] it was 1.64.
Regarding MPDZ (UniProt O75970), the values for the thermal stability z-score in experiment [1] (setting [3]), in experiment [1] (arsenate co-treatment: none) and in experiment [2] were -0.25, -0.0819 and 0.0169, respectively.
For the target MPG (UniProt P29372), the thermal stability z-score in experiment [1] (setting [3]) came to 0.128; in experiment [1] (arsenate co-treatment: none) it was 0.378; in experiment [2], 0.572.
In the same order, the values of MPHOSPH6 (UniProt Q99547) are 0.29, -0.917 and -2.13.
Regarding MPHOSPH10 (UniProt O00566), the thermal stability z-score was 0.544 in experiment [1] (setting [3]), 0.827 in experiment [1] (arsenate co-treatment: none) and 0.849 in experiment [2].
With MPI (UniProt P34949), the thermal stability z-score is -0.333 in experiment [1] (setting [3]), -0.379 in experiment [1] (arsenate co-treatment: none) and 0.187 in experiment [2].
On the same counts, the results for MPP1 (UniProt Q00013) are -0.0663, -0.0569 and -0.163.
On the same counts, the results for MPP5 (UniProt Q8N3R9) are -0.0805, -0.0555 and -0.004.
On the same counts, the results for MPP6 are -0.288, -0.0854 and -0.29.
On to MPP7 (UniProt Q5T2T1), for which the thermal stability z-score in experiment [1] (setting [3]) was -0.0378; in experiment [1] (arsenate co-treatment: none), -0.274; in experiment [2], -0.0635.
In the same order, the values of MPRIP (UniProt Q6WCQ1) are 0.435, 0.401 and 0.452.
On the same counts, the results for MPST (UniProt P25325) are 0.689, 0.913 and -0.099.
On to MPZL1 (UniProt O95297), for which the thermal stability z-score in experiment [1] (setting [3]) worked out at 0.0579; in experiment [1] (arsenate co-treatment: none) it was 0.206; in experiment [2], 0.179.
On the same counts, the results for MPZL2 (UniProt O60487) are 0.503, -0.0637 and -0.0559.
On the same counts, the results for MRAS (UniProt O14807) are 0.488, -0.67 and 0.0682.
